# Source: ChEMBL document CHEMBL4190187, “Discovery of pyrazolopyrimidine derivatives as novel inhibitors of ataxia telangiectasia and rad3 related protein (ATR)” (Bioorg Med Chem Lett, 2017)
# Experiments:
# [1] = molecular target: Serine/threonine-protein kinase A-Raf (Homo sapiens) (UniProt P10398); test: Inhibition of recombinant human A-Raf (273 to end residues) at 1 uM using myelin basic protein as substrate after 40 mins in presence of [gamma-33P]ATP by scintillation counting method
# [2] = molecular target: Calcium/calmodulin-dependent protein kinase type 1B (Homo sapiens) (UniProt Q6P2M8); test: Inhibition of recombinant full-length human CAMK1beta at 1 uM using KKLRRTLSFAEPG as substrate after 40 mins in presence of [gamma-33P]ATP by scintillation counting method
# [3] = molecular target: Casein kinase I isoform delta (Homo sapiens) (UniProt P48730); test: Inhibition of recombinant human CK1delta (1 to 294 residues) at 1 uM using KRRRALS(p)VASLPGL as substrate after 40 mins in presence of [gamma-33P]ATP by scintillation counting method
# [4] = molecular target: Mast/stem cell growth factor receptor Kit (Homo sapiens) (UniProt P10721); test: Inhibition of recombinant human cKit (544 to end residues) at 1 uM using poly(Glu,Tyr) 4:1 as substrate after 40 mins in presence of [gamma-33P]ATP by scintillation counting method
# [5] = molecular target: Dual specificity protein kinase CLK1 (Homo sapiens) (UniProt P49759); test: Inhibition of recombinant human CLK1 (130 to end residues) at 1 uM using ERMRPRKRQGSVRRRV as substrate after 40 mins in presence of [gamma-33P]ATP by scintillation counting method
# [6] = molecular target: Death-associated protein kinase 1 (Homo sapiens) (UniProt P53355); test: Inhibition of recombinant human DAPK1 (1 to 296 residues) at 1 uM using KKLNRTLSFAEPG as substrate after 40 mins in presence of [gamma-33P]ATP by scintillation counting method
# Chain of Death-associated protein kinase 1 (Homo sapiens) (P53355 whole entry, looked up, the tested form may be a part): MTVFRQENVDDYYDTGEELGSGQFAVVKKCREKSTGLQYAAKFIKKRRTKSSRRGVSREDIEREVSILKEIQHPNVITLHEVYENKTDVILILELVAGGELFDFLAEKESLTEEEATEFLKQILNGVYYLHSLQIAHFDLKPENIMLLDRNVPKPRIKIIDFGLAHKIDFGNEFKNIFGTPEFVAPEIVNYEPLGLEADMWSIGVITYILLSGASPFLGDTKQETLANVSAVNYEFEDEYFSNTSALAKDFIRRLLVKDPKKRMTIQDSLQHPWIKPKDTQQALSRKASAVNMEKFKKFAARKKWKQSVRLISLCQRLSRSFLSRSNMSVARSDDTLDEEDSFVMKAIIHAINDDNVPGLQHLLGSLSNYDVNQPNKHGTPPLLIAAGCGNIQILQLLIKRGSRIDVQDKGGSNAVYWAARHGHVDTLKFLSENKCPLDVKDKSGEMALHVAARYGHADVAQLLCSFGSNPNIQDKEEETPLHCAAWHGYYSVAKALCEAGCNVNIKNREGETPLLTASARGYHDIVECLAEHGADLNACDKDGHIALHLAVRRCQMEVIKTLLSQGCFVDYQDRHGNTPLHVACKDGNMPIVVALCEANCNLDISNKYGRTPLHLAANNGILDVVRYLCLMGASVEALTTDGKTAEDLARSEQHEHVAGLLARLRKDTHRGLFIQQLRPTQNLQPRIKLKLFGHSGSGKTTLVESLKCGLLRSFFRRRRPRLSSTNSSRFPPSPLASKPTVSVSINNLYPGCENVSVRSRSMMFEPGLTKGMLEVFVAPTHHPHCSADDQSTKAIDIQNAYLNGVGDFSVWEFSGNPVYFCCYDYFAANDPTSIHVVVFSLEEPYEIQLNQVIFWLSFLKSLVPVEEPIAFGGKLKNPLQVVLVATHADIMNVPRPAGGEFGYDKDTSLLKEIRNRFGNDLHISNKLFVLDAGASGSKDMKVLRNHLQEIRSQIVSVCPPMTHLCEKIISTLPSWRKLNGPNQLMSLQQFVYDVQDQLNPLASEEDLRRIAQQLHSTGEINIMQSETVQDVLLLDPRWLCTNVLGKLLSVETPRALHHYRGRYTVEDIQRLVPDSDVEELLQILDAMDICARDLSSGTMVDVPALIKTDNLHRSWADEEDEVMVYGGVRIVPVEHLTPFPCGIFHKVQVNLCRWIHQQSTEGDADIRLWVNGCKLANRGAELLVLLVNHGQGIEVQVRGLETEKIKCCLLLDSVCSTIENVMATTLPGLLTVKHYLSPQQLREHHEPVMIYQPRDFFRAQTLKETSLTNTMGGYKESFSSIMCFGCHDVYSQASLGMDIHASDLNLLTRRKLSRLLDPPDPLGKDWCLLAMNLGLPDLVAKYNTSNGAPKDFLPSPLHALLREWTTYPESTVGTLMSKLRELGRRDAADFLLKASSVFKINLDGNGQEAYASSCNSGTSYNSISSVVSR
# [7] = molecular target: Ephrin type-A receptor 8 (Homo sapiens) (UniProt P29322); test: Inhibition of recombinant human EPHA8 (615 to 911 residues) at 1 uM using KTFCGTPEYLAPEVRREPRILSEEEQEMFRDFDYIADWC as substrate after 40 mins in presence of [gamma-33P]ATP by scintillation counting method
# Chain of Ephrin type-A receptor 8 (Homo sapiens) (P29322 whole entry, the tested form may be a part): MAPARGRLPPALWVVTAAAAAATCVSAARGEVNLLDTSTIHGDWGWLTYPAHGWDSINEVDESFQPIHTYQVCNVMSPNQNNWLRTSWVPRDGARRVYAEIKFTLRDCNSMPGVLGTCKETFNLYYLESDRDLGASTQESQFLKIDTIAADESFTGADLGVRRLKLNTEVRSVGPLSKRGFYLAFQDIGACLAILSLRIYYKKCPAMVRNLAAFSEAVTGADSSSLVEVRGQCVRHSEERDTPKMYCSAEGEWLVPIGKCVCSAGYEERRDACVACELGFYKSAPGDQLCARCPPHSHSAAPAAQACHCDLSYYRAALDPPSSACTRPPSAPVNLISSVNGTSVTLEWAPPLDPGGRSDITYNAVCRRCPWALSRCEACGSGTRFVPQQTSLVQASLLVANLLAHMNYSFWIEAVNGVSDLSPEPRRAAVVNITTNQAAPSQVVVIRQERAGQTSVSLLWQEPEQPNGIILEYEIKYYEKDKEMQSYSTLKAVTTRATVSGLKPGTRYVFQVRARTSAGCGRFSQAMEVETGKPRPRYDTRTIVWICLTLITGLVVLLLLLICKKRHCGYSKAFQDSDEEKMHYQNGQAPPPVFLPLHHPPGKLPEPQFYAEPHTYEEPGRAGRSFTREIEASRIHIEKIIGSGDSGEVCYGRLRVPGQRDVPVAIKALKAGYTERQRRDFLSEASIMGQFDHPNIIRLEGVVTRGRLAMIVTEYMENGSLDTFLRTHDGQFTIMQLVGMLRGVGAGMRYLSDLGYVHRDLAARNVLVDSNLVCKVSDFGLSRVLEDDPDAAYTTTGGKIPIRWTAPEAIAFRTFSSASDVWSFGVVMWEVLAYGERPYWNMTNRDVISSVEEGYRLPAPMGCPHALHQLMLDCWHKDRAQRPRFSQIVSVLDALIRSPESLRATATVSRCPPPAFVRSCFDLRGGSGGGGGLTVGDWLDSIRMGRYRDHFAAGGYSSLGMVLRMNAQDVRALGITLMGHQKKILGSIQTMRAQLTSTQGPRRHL
# [8] = molecular target: Ephrin type-B receptor 4 (Homo sapiens) (UniProt P54760); test: Inhibition of recombinant human EPHB4 (561 to end residues) at 1 uM using poly(Glu,Tyr) 4:1 as substrate after 40 mins in presence of [gamma-33P]ATP by scintillation counting method
# [9] = molecular target: Rhodopsin kinase GRK1 (Homo sapiens) (UniProt Q15835); test: Inhibition of recombinant full-length human GRK1 at 1 uM using KKKKERLLDDRHDSGLDSMKDEE as substrate after 40 mins in presence of [gamma-33P]ATP by scintillation counting method
# Chain of Rhodopsin kinase GRK1 (Homo sapiens) (Q15835 whole entry, the tested form may be a part): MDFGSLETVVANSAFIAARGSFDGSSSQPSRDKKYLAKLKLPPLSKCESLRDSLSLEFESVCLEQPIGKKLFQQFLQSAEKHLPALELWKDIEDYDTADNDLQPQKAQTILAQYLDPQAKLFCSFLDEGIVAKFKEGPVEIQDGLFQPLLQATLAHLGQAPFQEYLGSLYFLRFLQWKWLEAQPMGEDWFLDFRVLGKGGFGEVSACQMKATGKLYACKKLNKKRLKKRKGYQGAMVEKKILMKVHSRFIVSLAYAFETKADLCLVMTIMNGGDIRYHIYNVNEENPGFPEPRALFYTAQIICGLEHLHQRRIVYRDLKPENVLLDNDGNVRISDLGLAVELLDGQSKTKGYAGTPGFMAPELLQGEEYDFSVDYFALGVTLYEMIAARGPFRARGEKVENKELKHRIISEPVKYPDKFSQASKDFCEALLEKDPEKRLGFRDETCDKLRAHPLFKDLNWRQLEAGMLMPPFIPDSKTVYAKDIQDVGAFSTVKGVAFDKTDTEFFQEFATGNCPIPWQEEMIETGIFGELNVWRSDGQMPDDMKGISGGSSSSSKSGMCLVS
# [10] = molecular target: Tyrosine-protein kinase HCK (Homo sapiens) (UniProt P08631); test: Inhibition of recombinant human activated Hck (230 to 497 residues) at 1 uM using GGMEDIYFEFMGGKKK as substrate after 40 mins in presence of [gamma-33P]ATP by scintillation counting method
# [11] = molecular target: Inhibitor of nuclear factor kappa-B kinase subunit alpha (Homo sapiens) (UniProt O15111); test: Inhibition of recombinant full-length human IKKalpha at 1 uM using peptide as substrate after 40 mins in presence of [gamma-33P]ATP by scintillation counting method
# [12] = molecular target: Tyrosine-protein kinase Lyn (Mus musculus) (UniProt P25911); test: Inhibition of recombinant full-length mouse Lyn at 1 uM using poly(Glu,Tyr) 4:1 as substrate after 40 mins in presence of [gamma-33P]ATP by scintillation counting method
# [13] = molecular target: Mitogen-activated protein kinase kinase kinase 2 (Homo sapiens) (UniProt Q9Y2U5); test: Inhibition of recombinant full-length human MEKK2 at 1 uM using myelin basic protein as substrate after 40 mins in presence of [gamma-33P]ATP by scintillation counting method
# [14] = molecular target: Hepatocyte growth factor receptor (Homo sapiens) (UniProt P08581); test: Inhibition of recombinant human Met (974 to end residues) at 1 uM using KKKGQEEEYVFIE as substrate after 40 mins in presence of [gamma-33P]ATP by scintillation counting method
# [15] = molecular target: Serine/threonine-protein kinase Nek2 (Homo sapiens) (UniProt P51955); test: Inhibition of recombinant full-length human NEK2 at 1 uM using myelin basic protein as substrate after 40 mins in presence of [gamma-33P]ATP by scintillation counting method
# [16] = molecular target: Serine/threonine-protein kinase NIM1 (Homo sapiens) (UniProt Q8IY84); test: Inhibition of recombinant full-length human NIM1 at 1 uM using KKKVSRSGLYRSPSMPENLNRPR as substrate after 40 mins in presence of [gamma-33P]ATP by scintillation counting method
# Chain of Serine/threonine-protein kinase NIM1 (Homo sapiens) (Q8IY84 whole entry): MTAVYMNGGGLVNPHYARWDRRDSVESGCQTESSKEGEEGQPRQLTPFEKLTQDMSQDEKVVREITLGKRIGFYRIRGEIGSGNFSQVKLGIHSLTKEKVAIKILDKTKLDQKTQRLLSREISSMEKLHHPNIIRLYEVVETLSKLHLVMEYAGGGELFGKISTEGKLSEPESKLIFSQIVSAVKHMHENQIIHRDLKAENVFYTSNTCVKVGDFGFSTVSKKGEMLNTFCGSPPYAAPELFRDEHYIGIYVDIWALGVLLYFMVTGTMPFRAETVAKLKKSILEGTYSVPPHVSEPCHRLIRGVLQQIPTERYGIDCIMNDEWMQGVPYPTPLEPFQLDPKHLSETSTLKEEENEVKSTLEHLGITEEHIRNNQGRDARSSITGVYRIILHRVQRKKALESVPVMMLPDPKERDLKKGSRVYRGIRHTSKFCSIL
# [17] = molecular target: PI3K p110 alpha/p85 alpha (Mus musculus) (UniProt P26450+P42337); test: Inhibition of recombinant full-length mouse p110a H1047R mutant/p85a at 1 uM using phosphatidylinositol 4,5-bisphosphate as substrate after 40 mins in presence of [gamma-33P]ATP by scintillation counting method; format: protein-complex assay
# [18] = molecular target: Serine/threonine-protein kinase pim-3 (Homo sapiens) (UniProt Q86V86); test: Inhibition of recombinant human PIM3 (2 to end residues) at 1 uM using RSRHSSYPAGT as substrate after 40 mins in presence of [gamma-33P]ATP by scintillation counting method
# [19] = molecular target: RAC-alpha serine/threonine-protein kinase (Homo sapiens) (UniProt P31749); test: Inhibition of recombinant full-length human PKBalpha at 1 uM using GRPRTSSFAEGKK as substrate after 40 mins in presence of [gamma-33P]ATP by scintillation counting method
# [20] = molecular target: Protein kinase C beta type (Homo sapiens) (UniProt P05771); test: Inhibition of recombinant human PKCbeta2 (2 to end residues) at 1 uM using histone H1 as substrate after 40 mins in presence of [gamma-33P]ATP by scintillation counting method
# [21] = molecular target: Protein kinase C iota type (Homo sapiens) (UniProt P41743); test: Inhibition of recombinant full-length human PKCiota at 1 uM using ERMRPRKRQGSVRRRV as substrate after 40 mins in presence of [gamma-33P]ATP by scintillation counting method
# [22] = molecular target: cGMP-dependent protein kinase 1 (Homo sapiens) (UniProt Q13976); test: Inhibition of recombinant full-length human PKG1alpha at 1 uM using RRRLSFAEPG as substrate after 40 mins in presence of [gamma-33P]ATP by scintillation counting method
# Chain of cGMP-dependent protein kinase 1 (Homo sapiens) (Q13976 whole entry): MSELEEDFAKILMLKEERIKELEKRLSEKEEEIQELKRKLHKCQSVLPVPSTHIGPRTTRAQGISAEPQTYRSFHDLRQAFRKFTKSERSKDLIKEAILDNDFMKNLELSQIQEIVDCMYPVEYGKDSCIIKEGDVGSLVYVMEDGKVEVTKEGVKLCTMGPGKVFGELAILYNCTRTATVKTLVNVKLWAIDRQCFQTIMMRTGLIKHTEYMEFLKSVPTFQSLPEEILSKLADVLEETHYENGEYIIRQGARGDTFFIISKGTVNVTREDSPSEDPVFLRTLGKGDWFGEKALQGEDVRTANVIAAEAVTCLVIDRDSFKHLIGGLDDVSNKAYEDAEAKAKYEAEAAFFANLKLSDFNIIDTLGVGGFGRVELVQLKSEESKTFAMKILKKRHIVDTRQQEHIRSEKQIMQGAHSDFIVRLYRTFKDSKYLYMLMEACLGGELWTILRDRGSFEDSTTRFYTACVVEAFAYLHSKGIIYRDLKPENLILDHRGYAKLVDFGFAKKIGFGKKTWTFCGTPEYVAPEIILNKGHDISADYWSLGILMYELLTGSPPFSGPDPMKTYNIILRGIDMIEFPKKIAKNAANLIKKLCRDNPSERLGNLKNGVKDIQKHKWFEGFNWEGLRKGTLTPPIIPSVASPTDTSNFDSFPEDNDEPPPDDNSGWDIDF
# [23] = molecular target: Serine/threonine-protein kinase 33 (Homo sapiens) (UniProt Q9BYT3); test: Inhibition of recombinant full-length human STK33 at 1 uM using myelin basic protein as substrate after 40 mins in presence of [gamma-33P]ATP by scintillation counting method
# Chain of Serine/threonine-protein kinase 33 (Homo sapiens) (Q9BYT3 whole entry, looked up, the tested form may be a part): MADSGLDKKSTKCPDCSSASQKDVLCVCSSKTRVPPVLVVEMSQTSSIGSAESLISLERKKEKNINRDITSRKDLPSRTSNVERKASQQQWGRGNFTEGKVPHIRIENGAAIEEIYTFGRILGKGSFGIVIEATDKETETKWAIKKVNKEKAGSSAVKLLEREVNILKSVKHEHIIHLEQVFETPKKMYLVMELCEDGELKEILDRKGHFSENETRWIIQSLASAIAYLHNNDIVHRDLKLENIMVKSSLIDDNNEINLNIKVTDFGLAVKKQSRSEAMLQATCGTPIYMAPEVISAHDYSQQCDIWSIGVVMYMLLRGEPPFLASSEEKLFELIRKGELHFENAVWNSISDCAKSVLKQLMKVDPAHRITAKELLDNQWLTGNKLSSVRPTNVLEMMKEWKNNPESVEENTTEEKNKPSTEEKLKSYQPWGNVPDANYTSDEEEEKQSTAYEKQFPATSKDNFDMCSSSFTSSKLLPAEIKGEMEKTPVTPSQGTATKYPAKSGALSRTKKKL
# [24] = molecular target: Serine/threonine-protein kinase SIK1 (Homo sapiens) (UniProt P57059); test: Inhibition of recombinant human SIK (1 to 281 residues) at 1 uM using AMARAASAAALARRR as substrate after 40 mins in presence of [gamma-33P]ATP by scintillation counting method
structure (smiles),measurement,setting,value
CS(=O)(=O)c1ccc(-n2nc(-c3cnc4[nH]ccc4c3)c3c(N)ncnc32)cc1,inhibition,[1],-10%
same,inhibition,[2],-5%
same,inhibition,[3],66%
same,inhibition,[4],4%
same,inhibition,[5],10%
same,inhibition,[6],-2%
same,inhibition,[7],15%
same,inhibition,[8],27%
same,inhibition,[9],10%
same,inhibition,[10],93%
same,inhibition,[11],-5%
same,inhibition,[12],45%
same,inhibition,[13],5%
same,inhibition,[14],-4%
same,inhibition,[15],3%
same,inhibition,[16],-5%
same,inhibition,[17],14%
same,inhibition,[18],-1%
same,inhibition,[19],-1%
same,inhibition,[20],-4%
same,inhibition,[21],5%
same,inhibition,[22],-8%
same,inhibition,[23],4%
same,inhibition,[24],35%
